Values quoted from earlier work in PubChem BioAssay AID1259409 (Chemical Carcinogenesis Research Information System (CCRIS), 2018).

System: rodent chemically induced tumor inhibition, incidence and multiplicity
Test: CCRIS tumor inhibitor studies
Conditions: Dose [Inhibitor]: 0, Route [Inhibitor]: ORAL, Promoter: NONE USED
From the text: The CCRIS database contains chemical records with carcinogenicity, mutagenicity, tumor promotion, and tumor inhibition test results. It was developed by the National Cancer Institute (NCI). Data are derived from studies cited in primary journals, current awareness tools, NCI reports, and other sources. Test results have been reviewed by experts in carcinogenesis and mutagenesis.
CCRIS provides historical information from the years 1985 - 2011. It is no longer updated.
This is an archive assay for CCRIS tumor inhibitor studies.

Structure (SMILES) | tumour outcome (control, treated, inhibition, significance) (Carcinogen: 4-NITROQUINOLINE-1-OXIDE, 56-57-5, 500 PPM IN DIET FOR 10 WK BEGINNING 1 WK PRIOR TO CARCINOGEN DOSE (STUDY DURATION: 32 WK), Species: RAT, Strain/Sex: F344/MALE, Target Tissue: Type of Lesion: TONGUE: CARCINOMA, Dose [Carcinogen]: 20 PPM IN DRINKING WATER FOR 8 WK) | tumour outcome (control, treated, inhibition, significance) (Carcinogen: 4-NITROQUINOLINE-1-OXIDE, 56-57-5, 500 PPM IN DIET FOR 10 WK BEGINNING 1 WK PRIOR TO CARCINOGEN DOSE (STUDY DURATION: 32 WK), Species: RAT, Strain/Sex: F344/MALE, Target Tissue: Type of Lesion: TONGUE: PAPILLOMA, Dose [Carcinogen]: 20 PPM IN DRINKING WATER FOR 8 WK) | tumour outcome (control, treated, inhibition, significance) (Carcinogen: 4-NITROQUINOLINE-1-OXIDE, 56-57-5, 500 PPM IN DIET FOR 22 WK BEGINNING 1 WK POST CARCINOGEN TREATMENT (STUDY DURATION: 32 WK), Species: RAT, Strain/Sex: F344/MALE, Target Tissue: Type of Lesion: TONGUE: CARCINOMA, Dose [Carcinogen]: 20 PPM IN DRINKING WATER FOR 8 WK) | tumour outcome (control, treated, inhibition, significance) (Carcinogen: 4-NITROQUINOLINE-1-OXIDE, 56-57-5, 500 PPM IN DIET FOR 22 WK BEGINNING 1 WK POST CARCINOGEN TREATMENT (STUDY DURATION: 32 WK), Species: RAT, Strain/Sex: F344/MALE, Target Tissue: Type of Lesion: TONGUE: PAPILLOMA, Dose [Carcinogen]: 20 PPM IN DRINKING WATER FOR 8 WK) | tumour outcome (control, treated, inhibition, significance) (Carcinogen: BENZO[A]PYRENE, 50-32-8, 0.2 MG/G IN DIET FOR 21 WK BEGINNING 1 WK POST LAST CARCINOGEN DOSE (STUDY DURATION: 23 WK), Species: MOUSE, Strain/Sex: STRAIN-A/FEMALE, Target Tissue: Type of Lesion: FORESTOMACH: TUMOR, Dose [Carcinogen]: 2 MG IN 0.2 ML COTTONSEED OIL ONCE EACH ON DAYS 1, 3 AND 7 OF STUDY) | tumour outcome (control, treated, inhibition, significance) (Carcinogen: BENZO[A]PYRENE, 50-32-8, 1 MG/G IN DIET FOR 21 WK BEGINNING 1 WK POST LAST CARCINOGEN DOSE (STUDY DURATION: 23 WK), Species: MOUSE, Strain/Sex: STRAIN-A/FEMALE, Target Tissue: Type of Lesion: FORESTOMACH: TUMOR, Dose [Carcinogen]: 2 MG IN 0.2 ML COTTONSEED OIL ONCE EACH ON DAYS 1, 3 AND 7 OF STUDY) | tumour outcome (control, treated, inhibition, significance) (Carcinogen: BENZO[A]PYRENE, 50-32-8, 5 MG/G IN DIET FOR 21 WK BEGINNING 1 WK POST LAST CARCINOGEN DOSE (STUDY DURATION: 23 WK), Species: MOUSE, Strain/Sex: STRAIN-A/FEMALE, Target Tissue: Type of Lesion: FORESTOMACH: TUMOR, Dose [Carcinogen]: 2 MG IN 0.2 ML COTTONSEED OIL ONCE EACH ON DAYS 1, 3 AND 7 OF STUDY) | tumour outcome (control, treated, inhibition, significance) (Carcinogen: BENZO[A]PYRENE, 50-32-8, 10 MG/G IN DIET FOR 21 WK BEGINNING 1 WK POST LAST CARCINOGEN DOSE (STUDY DURATION: 23 WK), Species: MOUSE, Strain/Sex: STRAIN-A/FEMALE, Target Tissue: Type of Lesion: FORESTOMACH: TUMOR, Dose [Carcinogen]: 2 MG IN 0.2 ML COTTONSEED OIL ONCE EACH ON DAYS 1, 3 AND 7 OF STUDY) | tumour outcome (control, treated, inhibition, significance) (Carcinogen: N-METHYL-N-NITROSOUREA, 684-93-5, 5 MG/G IN DIET FOR 17 WK BEGINNING 1 WK POST CARCINOGEN DOSE (STUDY DURATION: 18 WK), Species: RAT, Strain/Sex: SPRAGUE-DAWLEY/FEMALE, Target Tissue: Type of Lesion: MAMMARY GLAND: TUMOR, Dose [Carcinogen]: 50 MG/KG BW ONCE) | tumour outcome (control, treated, inhibition, significance) (Carcinogen: N-METHYL-N-NITROSOUREA, 684-93-5, 5 MG/G IN DIET STARTING 4 WK POST CARCINOGEN DOSE THEN FED FOR 3 WK ALTERNATING WITH 3 WK ON CONTROL DIET FOR DURATIO, Species: RAT, Strain/Sex: SPRAGUE-DAWLEY/FEMALE, Target Tissue: Type of Lesion: MAMMARY GLAND: TUMOR, Dose [Carcinogen]: 50 MG/KG BW ONCE) | tumour outcome (control, treated, inhibition, significance) (Carcinogen: AZOXYMETHANE, 25843-45-2, 0.02% IN DIET FOR FIRST 3 WK OF STUDY (STUDY DURATION: 1 YR), Species: RAT, Strain/Sex: F344/MALE, Target Tissue: Type of Lesion: INTESTINE: ADENOMA OR ADENOCARCINOMA, Dose [Carcinogen]: 15 MG/KG BW ONCE IN WK 1 AND ONCE IN WK 3 OF STUDY) | tumour outcome (control, treated, inhibition, significance) (Carcinogen: AZOXYMETHANE, 25843-45-2, 100 PPM IN DIET FOR DURATION OF STUDY BEGINNING 1 WK POST CARCINOGEN TREATMENT (STUDY DURATION: 32 WK), Species: RAT, Strain/Sex: F344/MALE, Target Tissue: Type of Lesion: LARGE INTESTINE: ADENOCARCINOMA, Dose [Carcinogen]: 15 MG/KG BW 1/WK FOR 3 WK) | tumour outcome (control, treated, inhibition, significance) (Carcinogen: AZOXYMETHANE, 25843-45-2, 100 PPM IN DIET FOR DURATION OF STUDY BEGINNING 1 WK POST CARCINOGEN TREATMENT (STUDY DURATION: 32 WK), Species: RAT, Strain/Sex: F344/MALE, Target Tissue: Type of Lesion: LARGE INTESTINE: ADENOMA, Dose [Carcinogen]: 15 MG/KG BW 1/WK FOR 3 WK) | tumour outcome (control, treated, inhibition, significance) (Carcinogen: AZOXYMETHANE, 25843-45-2, 100 PPM IN DIET FOR DURATION OF STUDY BEGINNING 1 WK POST CARCINOGEN TREATMENT (STUDY DURATION: 32 WK), Species: RAT, Strain/Sex: F344/MALE, Target Tissue: Type of Lesion: SMALL INTESTINE: ADENOCARCINOMA, Dose [Carcinogen]: 15 MG/KG BW 1/WK FOR 3 WK) | tumour outcome (control, treated, inhibition, significance) (Carcinogen: AZOXYMETHANE, 25843-45-2, 100 PPM IN DIET FOR DURATION OF STUDY BEGINNING 1 WK POST CARCINOGEN TREATMENT (STUDY DURATION: 32 WK), Species: RAT, Strain/Sex: F344/MALE, Target Tissue: Type of Lesion: SMALL INTESTINE: ADENOMA, Dose [Carcinogen]: 15 MG/KG BW 1/WK FOR 3 WK) | tumour outcome (control, treated, inhibition, significance) (Carcinogen: AZOXYMETHANE, 25843-45-2, 200 PPM IN DIET FOR DURATION OF STUDY BEGINNING 1 WK POST CARCINOGEN TREATMENT (STUDY DURATION: 32 WK), Species: RAT, Strain/Sex: F344/MALE, Target Tissue: Type of Lesion: LARGE INTESTINE: ADENOCARCINOMA, Dose [Carcinogen]: 15 MG/KG BW 1/WK FOR 3 WK) | tumour outcome (control, treated, inhibition, significance) (Carcinogen: AZOXYMETHANE, 25843-45-2, 200 PPM IN DIET FOR DURATION OF STUDY BEGINNING 1 WK POST CARCINOGEN TREATMENT (STUDY DURATION: 32 WK), Species: RAT, Strain/Sex: F344/MALE, Target Tissue: Type of Lesion: LARGE INTESTINE: ADENOMA, Dose [Carcinogen]: 15 MG/KG BW 1/WK FOR 3 WK) | tumour outcome (control, treated, inhibition, significance) (Carcinogen: AZOXYMETHANE, 25843-45-2, 200 PPM IN DIET FOR DURATION OF STUDY BEGINNING 1 WK POST CARCINOGEN TREATMENT (STUDY DURATION: 32 WK), Species: RAT, Strain/Sex: F344/MALE, Target Tissue: Type of Lesion: SMALL INTESTINE: ADENOCARCINOMA, Dose [Carcinogen]: 15 MG/KG BW 1/WK FOR 3 WK) | tumour outcome (control, treated, inhibition, significance) (Carcinogen: AZOXYMETHANE, 25843-45-2, 200 PPM IN DIET FOR DURATION OF STUDY BEGINNING 1 WK POST CARCINOGEN TREATMENT (STUDY DURATION: 32 WK), Species: RAT, Strain/Sex: F344/MALE, Target Tissue: Type of Lesion: SMALL INTESTINE: ADENOMA, Dose [Carcinogen]: 15 MG/KG BW 1/WK FOR 3 WK)
O=C(/C=C/c1ccccc1)c1ccccc1 | 9/15 (60%), 3/16 (19%), 68%, p<0.05 | 4/15 (27%), 1/16 (6%), 78%, not significant | 9/15 (60%), 3/16 (19%), 68%, p<0.05 | 4/15 (27%), 0/16 (0%), 100%, p<0.05 | 93%, 100%, -8%, not significant | 93%, 100%, -8%, not significant | 93%, 100%, -8%, not significant | 93%, 100%, -8%, not significant | 71%, 36%, 49%, p=0.058 | 75%, 38%, 49%, p=0.033 |  |  |  |  |  |  |  |  | 
O=C1C=C(/C=C/c2ccccc2)C(O)O1 (centres undefined) |  |  |  |  |  |  |  |  |  |  | 20/27 (74%), 7/18 (39%), 47%, p<0.02 | 10/30 (33%), 5/28 (18%), 45%, not significant | 1/30 (3%), 2/28 (7%), -133%, not significant | 12/30 (40%), 7/28 (25%), 38%, not significant | 1/30 (3%), 1/28 (4%), -33%, not significant | 10/30 (33%), 3/28 (11%), 67%, p<0.05 | 1/30 (3%), 2/28 (7%), -133%, not significant | 12/30 (40%), 2/28 (7%), 83%, p<0.005 | 1/30 (3%), 0/28 (0%), 100%, not significant
